Test results as given in a melting point compilation (Tetko et al.; mined from patent text by program, amines drawn as free bases though some values may be those of a salt).

SMILES	melting point [°C]
Cn1cnc(S(=O)(=O)N2CCS(=O)(=O)CC2)c1	179 to 180
COC(=O)[C@H]1C[C@H](C(=O)O)Nc2cccc(Cl)c21 (relative stereo)	159 to 161
COc1c(-c2ccccc2)c(C(=O)c2ccc(O)c(Br)c2)n2ccccc12	205
Cc1ccc(C(=O)C=CN(C)C)o1	123 to 125
Cn1c2cc(Cl)ccc2c2c(C=O)nn(-c3ccccc3)c(=O)c21	235 to 236
CCOc1cc(C(CC(=O)OC)N2C(=O)c3ccccc3C2=O)ccc1OC (stereo not drawn)	86 to 87
COc1cccc(CN2CCc3cc(O)c(OC)cc3C2C)c1 (stereo not drawn)	97 to 99
CC(=O)OCCn1nc(-c2cc(C(C)(C)C)c(O)c(C(C)(C)C)c2)c2ccc(C(C)C)nc21	121 to 122
COC(=O)C1(Oc2cc(-n3c(=O)cc(C(F)(F)F)n(C)c3=O)c(F)cc2Cl)CC=CNC1=O (stereo not drawn)	82.4
Cc1cc(Br)ccc1-n1c(C(F)(F)F)nn(C)c1=O	80 to 83
CCCc1c(OCCCCCCc2ccc(C(C)C)c(OC)c2OC)ccc(C(=O)O)c1O	106 to 108
CCCCc1nc2cccc(CO)c2n1Cc1ccc(-c2ccccc2-c2nnn[nH]2)cc1	152 to 153
COc1cc(OC)c2c(=O)[nH]c(-c3ccc(OC)c(-c4ccc(S(C)(=O)=O)cc4)n3)nc2c1	279 to 281
COc1ccccc1N1CCN([C@@H]2Cc3cccc(O)c3C[C@H]2O)CC1 (relative stereo)	199 to 201
C[C@@H]1Cc2cc(N3C[C@H](C(N)=O)OC3=O)ccc2N1C=O	228 to 230
COC(=O)C1=C(C)NC(C)=C(C(=O)OCCCCCCOc2cc(-c3ccc(OC)cc3)[nH]n2)C1c1cccc(Cl)c1Cl (stereo not drawn)	146 to 148
CC(=O)N(C)c1cc(-c2ccnc3c(C(=O)c4cccs4)cnn23)ccc1Cl	191 to 193
CN(C)C=Nc1ccc(-n2ncnc2-c2ccc(F)cc2)cc1	90 to 93
COc1cc(C(=O)O)ccc1Cc1c(Cl)n(C)c2ccc(CC(C)NC(=O)N(C)C)cc12 (stereo not drawn)	171 to 173

SMILES	melting point [°C]
O=C(CC(O)(c1cc(Cl)cc(Cl)c1)C(F)(F)F)c1ccc(F)c(Br)c1 (stereo not drawn)	134 to 135
c1ccc(-c2cc3ncnc(Nc4ccc5c(ccn5CCN5CCOCC5)c4)c3s2)cc1	225 to 226
CCOC(=O)C(=CNc1cccc(OCC)n1)C(=O)OCC	58 to 60
CC(C)Oc1ccc(C(=O)c2[nH]c3cc(Cl)ccc3c2CC(=O)O)cc1	216 to 218
CCCCOCC(COCc1ccccc1)OCn1cnc2c(O)nc(NC(C)=O)nc21 (stereo not drawn)	139 to 141
CCOC(=O)C1=C(C)C2=C(CC1)SCCC2=O	99 to 100
O=C(O)C=Cc1cn(Cc2cc(OCc3ccccc3)cc(OCc3ccccc3)c2)cc1-c1ccccc1	182 to 183
O=C1Nc2ccc(Cl)cc2C2(c3ccccc3)OCCN12 (stereo not drawn)	216 to 217
CCc1c(CC(=O)NCCCCCC(=O)NCCc2ccc(NS(C)(=O)=O)cc2)ccc(OC)c1OC	110 to 112
CCN1C[C@@H](O)[C@H](NC2CCCCC2)C1 (relative stereo)	68 to 71
Cc1ccc(C(=S)Oc2nc[nH]c2C(N)=O)cc1	219
CCN(CC)CCOc1ccc(Nc2ncc3c(n2)N(C)C(=O)N(c2ccccc2)C3)cc1	141 to 144
Cc1oc(-c2ccccc2)nc1COc1ccc(CCc2oc(-c3ccccc3)nc2CO)cc1	142 to 143
Cc1cc(=O)c2ccc(OCCCCl)cc2o1	113 to 115
O=C(Nc1ccc(N2C[C@@H]3C[C@H]2CO3)c(F)c1)OCc1ccccc1	120 to 121
Fc1ccc2cc(C3CCNCC3)sc2c1	115 to 120
COc1ccc(F)cc1N1CCN(CCCN2Cc3cc(Cl)c(S(N)(=O)=O)cc3C2=O)CC1	158 to 163
CC(=O)Nc1ccc(COc2cccc(C(N)=O)c2)cc1	198 to 199
COc1ccc(-c2cc3ccc(C(=O)O)cc3s2)cc1C12CC3CC(CC(C3)C1)C2	305

The next lines start with the values.

melting point [°C]	SMILES
225	O=C(O)c1cccc(SCc2c(O[C@H](Cn3ccnc3)c3ccccc3)ccc3c2CCCC3=O)c1
132	O=C(c1ccc(Cl)c([N+](=O)[O-])c1)c1cc2ccccc2o1
205 to 207	CS(=O)(=O)c1ccc(-c2cnn(-c3cccc(Cl)c3)c(=O)c2Oc2ccccc2)cc1
160 to 162	COC(=O)c1cc(C[C@@H]2COc3ccc(OCc4nc5cc(F)ccc5s4)cc3[C@@H]2O)ccc1OC (relative stereo)
111 to 112	CN1CC(CCN2CCOCC2)c2nc3ccccc3n2C1=O (stereo not drawn)
117 to 118	O=Cc1cn(Cc2cc(OCc3ccccc3)cc(OCc3ccccc3)c2)cc1-c1ccccc1
168	CNC(=O)C(C)CCn1c(COc2ccc(Cl)cc2)nc2c(C)cccc21 (stereo not drawn)
111 to 113	CCNC(=O)c1c(Cl)cccc1[Si](C)(C)C1CCCCC1
58 to 59	ON=Cc1cccc(OCc2ccccc2)c1
139 to 140	O=S(=O)(Nc1ccc2c(OCc3ccc(-c4ccc(F)cc4)cc3)cccc2c1)C(F)(F)F
195 to 197	CCCCC(CC)COc1ccc(-c2c3ccc(O)cc3c(-c3ccc(OCC(CC)CCCC)cc3)c3ccc(O)cc23)cc1 (stereo not drawn)
140	CNC(=O)C(C)c1ccc2c(c1)CCc1ccccc1C2=O (stereo not drawn)
52 to 56	CCc1c(C)sc2ncnc(Cl)c12
255 to 256	NS(=O)(=O)c1ccc(N2CCN(Cc3cn4cc(Cl)ccc4n3)CC2)cc1
90 to 91	O=C1NCC(Cc2ccccc2OCc2ccccc2)O1 (stereo not drawn)
> 300	CN(C)c1ccc2nc(-c3c[nH]c4ccccc34)[nH]c(=O)c2c1
95 to 100	O=C(CCl)Nc1ccc2cc3ccc(NC(=O)CCl)cc3nc2c1
320 to 323	Cn1c(=O)c(-c2ccc(Cl)cc2Cl)cc2c3cc(-c4ccno4)ccc3[nH]c21
122 to 125	Cc1cn(Cc2ccc3c(c2)-c2[nH]nc(-c4ccsc4)c2C3)cn1
122 to 124	CC1=C(C(=O)Nc2ccc(Cl)c(C(=O)OC(C)C)c2)SCCS1
218 to 220	Nc1ccc(C(c2ccc(N)c(N)c2)(C(F)(F)F)C(F)(F)F)cc1N
99	CCc1ccc2[nH]c(C(=O)OCc3ccccc3)cc2c1
104 to 107	Cc1cn(CC(Br)C(=O)N(C)C)nc1-c1ccccc1 (stereo not drawn)
260 to 261	O=C(Oc1ccc(Cl)c(Cl)c1)c1cc2c(cn1)[nH]c1ccccc12
89 to 91	CCOc1ccc(OCCCN2CCC(C(O)(c3ccc(F)cc3)c3ccc(F)cc3)CC2)cc1
149	Cc1cccc(Oc2cccc(NC(=O)c3ccn4c3CSC4c3cccnc3)c2)c1 (stereo not drawn)
136 to 138	CCCCCCOc1ccc(C(=O)c2cccc(C(=O)O)c2)c(C)c1
57 to 58	CCCCCCCCCCCCCCCCCCNC(=O)OCC1(CO)CCCO1 (stereo not drawn)
165 to 167	CC(NC(=O)c1cc(Cl)ccc1NC(=O)C1CC(O)=NN1c1ncccc1Cl)C1CC1 (stereo not drawn)
119 to 121	COC(=O)C=C[C@@H](Cc1cn(CC=Cc2ccccc2)c2ccccc12)NC(=O)OC(C)(C)C
